Experimental data as given in patent publication US20150252022A1, “RETINOIC ACID RECEPTOR-RELATED ORPHAN RECEPTOR MODULATORS AND USES THEREOF” (INNOV17 LLC, priority 2014, published 2015).

How the values were obtained:
Assay type in all cases: cell-based
Details in all cases: 72 h; human CD4+ T cells under TH17-polarizing conditions, 3 days, supernatant ELISA
IL-21 = test: Human TH17 Cytokine Inhibition as measured by ELISA (IL-21)
Method: (§1) Peripheral blood mononuclear cells (PBMCs) were sourced from freshly prepared leukocyte enriched plasma (buffy coat) from healthy donors (New York Blood Center). PBMCs were isolated by density gradient centrifugation using Ficoll-Paque™ PLUS (GE Healthcare). Human CD4+ T cells were seeded into 96-well plates (5×10^4 cells/well) and activated with plate-bound anti-human (h)-CD3 antibody and soluble h-aCD28 (both at 1 ug/ml; eBioscience) and differentiated into TH17 cells with 20 ng/mL h-IL-6, 5 ng/mL h-TGF-β1, 10 ng/mL h-IL-23 (eBioscience) and 10 ng/mL IL-1β (Miltenyi Biotec) in serum-free TexMACS Medium (Miltenyi Biotec) supplemented with 1% Penicillin/Streptomycin (Lonza) for 3 days. CD4+ T cells propagated under TH17-polarizing conditions were cultured in the presence or absence of various concentrations of compounds with a final concentration of 0.1% DMSO. Supernatants were collected and stored at −20° C. until assayed for IL-17A, IL-17F and IL-21 levels by “Ready-Set-Go” ELISA kits (eBioscience) as per manufacturer's instructions. Endpoint absorbance was read at 450 nm using a microplate reader (Perkin Elmer).

IL-17A = test: Human TH17 Cytokine Inhibition as measured by ELISA (IL-17A)
Method: as §1

IL-17F = test: Human TH17 Cytokine Inhibition as measured by ELISA (IL-17F)
Method: as §1

Compound	IC50 (IL-21) [µM]	IC50 (IL-17A) [µM]	IC50 (IL-17F) [µM]
O=C(Cc1ccccc1)N1CCC(Cn2ccc3cc(-c4cn[nH]c4)ccc32)CC1 [Example 88, 1-(4-((5-(1H-pyrazol-4-yl)-1H-indol-1-yl)methyl)piperidin-1-yl)-2-phenylethanone]	< 10	< 10	< 10
CC1CC(CN2CCc3cc(-c4cn[nH]c4)ccc32)CN1C(=O)CCc1ccccc1 (centres unmarked) [Example 26, 1-(4-((5-(1H-pyrazol-4-yl)indolin-1-yl)methyl)-2-methylpyrrolidin-1-yl)-3-phenylpropan-1-one]	< 10	< 10	< 10
O=C(CCc1ccccc1)N1CCCC(CN2CCc3cc(-c4cn[nH]c4)ccc32)CC1 (centres unmarked) [Example 56, 1-(4-((5-(1H-pyrazol-4-yl)indolin-1-yl)methyl)azepan-1-yl)-3-phenylpropan-1-one]	< 10	< 10	< 10
CC(C)CNC(=O)N1CCC(CN2CCc3cc(-c4cn[nH]c4)ccc32)C1 (centres unmarked) [Example 67, 3-((5-(1H-pyrazol-4-yl)indolin-1-yl)methyl)-N-isobutylpyrrolidine-1-carboxamide]	< 10	< 10	< 10
O=C(CCc1cccc(F)c1)N1CCC(Cn2ccc3cc(-c4cn[nH]c4)ccc32)CC1 [Example 94, 1-(4-((5-(1H-pyrazol-4-yl)-1H-indol-1-yl)methyl)piperidin-1-yl)-3-(3-fluorophenyl)propan-1-one]	< 10	< 10	< 10
C[C@@H]1C[C@@H](Cn2ccc3cc(-c4cn[nH]c4)ccc32)CN1C(=O)CCc1ccccc1 (relative stereo) [Example 129, trans-1-(4-((5-(1H-pyrazol-4-yl)-1H-indol-1-yl)methyl)-2-methylpyrrolidin-1-yl)-3-phenylpropan-1-one]	< 10	< 10	< 10
CC1(C)CC(Cn2ccc3cc(-c4cn[nH]c4)ccc32)CN1C(=O)CC1CCCCC1 (centres unmarked) [Example 111]	< 10	< 10	< 10
O=C(C1CCCCC1)N1CCC(CN2CCc3cc(-c4cn[nH]c4)ccc32)CC1 [Example 42, (4-((5-(1H-pyrazol-4-yl)indolin-1-yl)methyl)piperidin-1-yl)(cyclohexyl)methanone]	< 10	< 10	< 10
O=C(Cc1ccccc1)N1CCC(CN2CCc3cc(-c4cn[nH]c4)ccc32)CC1 [Example 40, 1-(4-((5-(1H-pyrazol-4-yl)indolin-1-yl)methyl)piperidin-1-yl)-2-phenylethanone]	< 10	< 10	< 10
CC(C)COC(=O)N1CCC(CN2CCc3cc(-c4cn[nH]c4)ccc32)C1 (centres unmarked) [Example 69, isobutyl 3-((5-(1H-pyrazol-4-yl)indolin-1-yl)methyl)pyrrolidine-1-carboxylate]	< 10	< 10	< 10
CC1CC(CN2CCc3cc(-c4cn[nH]c4)ccc32)CN1C(=O)c1ccccc1 (centres unmarked) [Example 24, (4-((5-(1H-pyrazol-4-yl)indolin-1-yl)methyl)-2-methylpyrrolidin-1-yl)(phenyl)methanone]	< 10	< 10	< 10
O=C(OCc1ccccc1)N1CCC(CN2CCc3cc(-c4cn[nH]c4)ccc32)CC1 [Example 70, benzyl 4-((5-(1H-pyrazol-4-yl)indolin-1-yl)methyl)piperidine-1-carboxylate]	< 10	< 10	< 10
CC1(C)CC(Cn2ccc3cc(-c4cn[nH]c4)ccc32)CN1C(=O)CCc1ccccc1 (centres unmarked) [Example 110]	< 10	< 10	< 10
CC(C)CNC(=O)N1CCC(CN2CCc3cc(-c4cn[nH]c4)ccc32)CC1 [Example 74C, 4-((5-(1H-pyrazol-4-yl)indolin-1-yl)methyl)-N-isobutylpiperidine-1-carboxamide]	> 10	< 10	> 10
O=C(CC1CCCCC1)N1CCCC(CN2CCc3cc(-c4cn[nH]c4)ccc32)CC1 (centres unmarked) [Example 57, 1-(4-((5-(1H-pyrazol-4-yl)indolin-1-yl)methyl)azepan-1-yl)-2-cyclohexylethanone]	< 10	< 10	< 10
Cc1ncc(-c2ccc3c(ccn3CC3CCN(C(=O)CCc4ccccc4)CC3)c2)s1 [Example 120, 1-(4-((5-(2-methylthiazol-5-yl)-1H-indol-1-yl)methyl)piperidin-1-yl)-3-phenylpropan-1-one]	< 10	< 10	< 10
CC(C)C(=O)N1CCC(CN2CCc3cc(-c4cn[nH]c4)ccc32)CC1 [Example 45, 1-(4-((5-(1H-pyrazol-4-yl)indolin-1-yl)methyl)piperidin-1-yl)-2-methylpropan-1-one]	> 10	> 10	> 10
CC(C)CC(=O)N1CCC(CN2CCc3cc(-c4cn[nH]c4)ccc32)CC1 [Example 44, 1-(4-((5-(1H-pyrazol-4-yl)indolin-1-yl)methyl)piperidin-1-yl)-3-methylbutan-1-one]	> 10	< 10	< 10
O=C(CCc1ccccc1)N1CCC(CN2CCCc3cc(-c4cn[nH]c4)ccc32)CC1 [Example 98, 1-(4-((6-(1H-pyrazol-4-yl)-3,4-dihydroquinolin-1(2H)-yl)methyl)piperidin-1-yl)-3-phenylpropan-1-one]	< 10	< 10	< 10
CC(C)C(=O)N1CC(CN2CCc3cc(-c4cn[nH]c4)ccc32)CC1C (centres unmarked) [Example 30, 1-(4-((5-(1H-pyrazol-4-yl)indolin-1-yl)methyl)-2-methylpyrrolidin-1-yl)-2-methylpropan-1-one]	< 10	< 10	< 10
CC(C)C(=O)N1CCCC(Cn2ccc3cc(-c4cn[nH]c4)ccc32)CC1 (centres unmarked) [Example 60, 1-(4-((5-(1H-pyrazol-4-yl)-1H-indol-1-yl)methyl)azepan-1-yl)-2-methylpropan-1-one]	> 10	< 10	< 10
O=C(CCc1ccccc1)N1CCC(Cn2ccc3cc(-c4cnn(CCO)c4)ccc32)CC1 [Example 118, 1-(4-((5-(1-(2-hydroxyethyl)-1H-pyrazol-4-yl)-1H-indol-1-yl)methyl)piperidin-1-yl)-3-phenylpropan-1-one]	< 10	< 10	< 10
Cc1cc2cc(-c3cn[nH]c3)ccc2n1CC1CCN(C(=O)CCc2ccccc2)CC1 [Example 132, 1-(4-((2-methyl-5-(1H-pyrazol-4-yl)-1H-indol-1-yl)methyl)piperidin-1-yl)-3-phenylpropan-1-one]	< 10	< 10	< 10
O=C(CC1CCCCC1)N1CCC(CN2CCc3cc(-c4cn[nH]c4)ccc32)CC1 [Example 43, 1-(4-((5-(1H-pyrazol-4-yl)indolin-1-yl)methyl)piperidin-1-yl)-2-cyclohexylethanone]	< 10	< 10	< 10
O=C(c1ccccc1)N1CCC(Cn2ccc3cc(-c4cn[nH]n4)ccc32)CC1 [Example 130, (4-((5-(2H-1,2,3-triazol-4-yl)-1H-indol-1-yl)methyl)piperidin-1-yl)(phenyl)methanone]	–	< 10	< 10
